Experimental data published in US6828328B1, “Analgesic combination of muscarinic agonists” (UCB s.A., priority 2002, dated 2004).
“And” between values parts separate entries of the source, which are not always exact repeats. Identical values can stand only once.

Columns and labels:
CD-1 female mice [1] = assay: mouse tail-flick test (antinociception, %MPE); assay type: in vivo; conditions: for antinociception (%MPE): at 30 min
Text: Its antinociception (analgesia) in vivo had been investigated using the mouse tail flick test. The mouse tail-flick test is a well-known experimental model to verify the analgesic activity of potential moderate and severe pain relievers including muscarinic agonists (Chau, T. T: Analgesic Testing in Animal Models. Pharmacological Methods in the Control of Inflammation. 195-212. 1989, Alan R. Liss. Inc.). […] Other possible muscarinic agonist activities, such as tremor, sedation, salivation, and hypothermia were observed simultaneously.
(§1) Experiments were carried out using a commercially available tail-flick analgesia meter (model TF-6 analgesia meter, Emdie Instrument Company, Maidens, Va., USA). […] A 10-second cutoff time was used as the maximum latency to avoid tissue damage.
(§2) Control animals received the corresponding vehicle(s) by the same route of administration.
The percentage of maximum possible effect (%MPE) was calculated as follows:
%MPE=[(postdrug latency−predrug latency)÷(cutoff time−predrug latency)]×100%.
(§3) All results were expressed as mean±SEM. […] This comparison was carried out at the peak of antinociception (30 minutes). Student's T test (one tailed analysis)(Microsoft Excel 97, Microsoft Corporation, Redmond, Wash., USA) was used to analyse the statistical significance between the two groups. The value of p<0.05 was considered as statistically significant.
as §1, §2
as §3, with “minutes). One tailed” for “minutes).”, “(Microsoft” for “(one tailed analysis)(Microsoft”, “[…],” for “Redmond,”, “analysis” for “analyse”

CD-1 female mice [2] = assay: observation of muscarinic side effects (tremor, sedation, salivation); assay type: in vivo, mouse; conditions: at its ED50 dose
Method: (§4) Observations of tremor, sedation, and salivation were made by close visual inspection of the mice at 5, 15, 30 and 60 minutes after injection of 4-s-[4-propylsulfanyl)-1,2,5-thiadiazol-3-yl]-1-azatricyclo[3.3.1.1<3,7>]decane hydrochloride. Tremor and sedation were scored as +(indicated visible tremor or sedation) or −(indicated non-visible tremor or sedation). Salivation was scored according to the following scale: 0, no sign of saliva within animal's mouth; 1, evidence of saliva in animal's mouth, but not on animal's muzzle; and 2, evidence of saliva in animal's mouth and on muzzle. No other muscarinic receptor mediated activities were observed.
as §4, with “4-s-[4-(propylsulfanyl)-1,2,5-thiadiazol-3-yl]-1-azatricyclo[3.3.1.1<3,7>]decane” for “4-s-[4-propylsulfanyl)-1,2,5-thiadiazol-3-yl]-1-azatricyclo[3.3.1.1<3,7>]decane”

## CCCSc1nsnc1[C@H]1[C@@H]2C[C@@H]3C[C@H]1CN(C3)C2.Cl [4-s-[4-(propylsulfanyl)-1,2,5-thiadiazol-3-yl]-1-azatricyclo[3.3.1.1<3,7>]decane hydrochloride]
CD-1 female mice [1]; 0.03 mg/kg sc alone, hydrochloride
  antinociception (%MPE): 19%
CD-1 female mice [1]; 0.05 mg/kg sc alone
  antinociception (%MPE): 38%
CD-1 female mice [1]; mouse tail-flick test, more potent than morphine
  antinociceptive potency relative to morphine: 300-1000 fold
CD-1 female mice [2]
  incidence of muscarinic side effects: low incidence

## CS(=O)(=O)Nc1ccc([N+](=O)[O-])cc1OC1CCCCC1 [NS-398]
CD-1 female mice [1]; NS-398 0.05 mg/kg ip alone
  antinociceptive effect: without antinociceptive effect

## CC(=O)Nc1ccc(O)cc1 [acetaminophen]
CD-1 female mice [1]; acetaminophen 60 mg/kg ip alone
  antinociceptive effect: without antinociceptive effect

## CC(C)Cc1ccc(C(C)C(=O)O)cc1 (stereo not drawn) [ibuprofen]
CD-1 female mice [1]; ibuprofen 50 mg/kg ip alone
  antinociceptive effect: without antinociceptive effect

## CN1CC[C@]23c4c5ccc(O)c4O[C@H]2[C@@H](O)C=C[C@H]3[C@H]1C5 [morphine]
CD-1 female mice [1]; morphine 3 mg/kg sc alone
  antinociception (%MPE): 13% and 25%
CD-1 female mice [1]; morphine 5.0 mg/kg sc alone
  antinociception (%MPE): 35%
